Values of other authors in US8623868B2, “Processes of making and using pharmaceutical formulations of antineoplastic agents” (Merck Sharp & Dohme Corp., priority 2002, dated 2014).

Experiments:
advanced melanoma [1] = settings: patients having advanced melanoma; Newlands et al., Br J Cancer 1992
advanced melanoma [2] = settings: patients with advanced melanoma; Journal of Clinical Oncology 13(4) 1995

water solubility: water-insoluble
Structure (SMILES): Cn1nnc2c(C(N)=O)ncn2c1=O [Temozolomide]
clinical responses achieved, % of patients (advanced melanoma [1]): 17%
clinical response achieved, % of patients (advanced melanoma [2]): 21%
